Measurements from patent publication US4442093A, “Method for administering 24,25-dihydroxycholecalciferol to persons suffering from hypercalcemia” (Kureha Kagaku Kogyo Kabushiki Kaisha, priority 1981, dated 1984).

Key:
calcium level in serum [1] = experiment: Serum calcium in rats made hypercalcemic with Vitamin D3 (Example 1); format: in vivo, male Wistar rats; conditions: for Calcium level in serum: 24R 100 µg/kg oral, calcitonin 4 MRCU/kg s.c.
Experimental: To 16 subgroups of male Wistar rats of body weight of 150±40 g (one subgroup consisting of 5 rats), a solution of Vitamin D3 dissolved in corn oil at 600 micrograms/ml was orally administered once a day for continuous 4 days at a daily dose rate of 0.5 ml/100 g body weight to prepare the rats artifically suffering from hypercalcemia. After one day's fasting from the final administration of Vitamin D3, the calcium level in the serum of each rat of the first subgroup was on the average 13.5±0.4 mg/dl. The remaining 15 subgroups of the rats were divided into 3 groups each consisting of 5 subgroups and subjected to the following tests.
To the rats of the second group, a solution of porcine calcitonin in a physiological saline solution containing 4% by weight of gelatin was subcutaneously injected at a dose rate of 4 MRCU/kg body weight instead of the solution of 24R,25-(OH)2 -D3 and they were treated as those of the first group.
To the rats of the third group, only the same triglyceride ester as in the first group was orally administered, and they are treated in the same manner as in the first group.
The calcium level of the respective sera of the thus collected blood was determined by OCPC method (Orthocresol Phthalein Complexone method) and shown in Table 1.

[2] = system: inorganic phosphate in serum; experiment: Serum inorganic phosphate in rats given puromycin aminonucleoside (Example 19); format: in vivo, male Wistar rats; conditions: hyperphosphatemia due to puromycin-amino-nucleoside
Experimental: Puromycin aminonucleoside (hereinafter abbreviated as AN) was dissolved in physiological saline solution to be the concentration of 15 mg of AN/ml.
The thus prepared solution was subcutaneously administered to […] in 9th to 10th week after birth divided equally into 3 groups once a day for continuous 5 days at a daily dose rate of 15 mg/kg body weight, and the administration of AN was suspended for the next 2 weeks. This cycle of 5 days of administration followed by 2 weeks of suspension of administration was repeated 5 times, and from the commencement of the 4th cycle, drinking water was substituted by one of the compositions for oral administration prepared in Example 18, namely, Composition A or Composition B to be taken ad lib by each one of the three groups of the rats for 38 days therefrom. […] As control, a group consisting of 8 male Wistar rats was used without giving AN and with the oral administration of aqueous 0.1% by weight isopropyl alcohol solution taken ad lib during the same 38 days as above. As comparative example, another group consisting of 8 male Wistar rats was used with the same administration of AN as in the test groups and with the oral administration of aqueous 0.1% by weight isopropyl alcohol taken ad lib as in the control group.

calcium level in serum [3] = experiment: Prevention of hypercalcemia in rats administered with 1-α-(OH)-D3 (Example 4); format: in vivo, male Wistar rats; conditions: 100 µg/kg oral together with 1-α-(OH)-D3 10 µg/kg i.p.
Description: In the present example, it is shown that 24R,25-(OH)2 -D3 has a function of preventing the occurrence of hypercalcemia on rats administered with 1-α-hydroxycholecalciferol (hereinafter referred to as 1-α-(OH)-D3).
Six subgroups of male Wistar rats of 130±30 g of body weight were subjected to the test while dividing the rats into 3 groups, each group consisting of 2 subgroups and each subgroup consisting of 5 animals. To the rats of the first group, after fasting for a night, an ethanolic solution of 1-α-(OH)-D3 was intraperitoneally administered at a dose rate of 10 micrograms of 1-α-(OH)-D3 /kg body weight. To the rats of the second group, a solution of 24R,25-(OH)2 -D3 in the triglyceride ester used in Example 1 was orally administered at a dose rate of 100 micrograms/kg body weight simultaneously with the same administration of 1-α-(OH)-D3 as in the rats of the first group.
The third group of the rats was used for control only with the oral administration of the triglyceride ester used in Example 1.

[4] = system: inorganic phosphate in serum; experiment: Serum inorganic phosphate in chronic renal failure patients under hemodialysis (Example 21); format: in vivo, human
Experimental: Eight patients suffering from chronic renal failure under the treatment of hemodialysis two times a week while using a dialysate containing 9 to 10 mg/dl of calcium component were further treated by oral administration of 24R,25-(OH)2 -D3 in a form of the soft capsule composition obtained in Example 6 at a daily dose of 2 to 10 micrograms for 6 weeks, and the concentration of inorganic phosphate in the serum of each patient before the commencement of the administration and that after completion of the administration were determined by Molybdenum Blue method.

thymus = experiment: Weight ratio of thymus to body and number of thymocytes in rats given puromycin aminonucleoside (Example 11); format: in vivo, male JCL-Wistar rats; conditions: 100 µg/kg/day oral 12 days with puromycin aminonucleoside 15 mg/kg s.c.
Experimental: Thirty-two male JCL-Wistar rats in tenth week after birth were used in the present test while keeping them in a room at 21±1° C. and 60±5% RH with solid diet (CE 2) and water taken ad lib.
They were divided equally into 4 groups (one group consisting of 8 animals), their treatments in the test being as follows:
subcutaneous injection of puromycin aminonucleoside as in the second group and oral administration of 24R,25-(OH)2 -D3 dissolved in Panacete 810 once a day at a daily dose rate of 100 micrograms/kg for continuous 12 days.
subcutaneous injection of puromycin aminonucleoside as in the second group and oral administration of 24S,25-(OH)2 -D3 dissolved in Panacete 810 once a day at a daily dose rate of 100 micrograms/kg for continuous 12 days.
After uniformly loosing the thymus in phosphate buffer solution with a forcets and fully pipetting, the mixture was filtered through a stainless steel mesh (Tylar standard #200) and the filtrate containing the thymic cells was stained with Turk's solution. The thus stained specimen was subjected to counting under a microscope.

With C=C1CC[C@H](O)C/C1=C/C=C1\CCC[C@]2(C)[C@@H]([C@H](C)CC[C@@H](O)C(C)(C)O)CC[C@@H]12 [24R,25-(OH)2 -D3] the “period for which the reduced calcium level was maintained” value (calcium level in serum [1]; 100 µg/kg oral) was 12 h, the “Calcium level in serum” value (calcium level in serum [1]; 2 h after administration) was 12.5 ± 0.4 mg/dL and the “Calcium level in serum” value (calcium level in serum [1]; 5 h after administration) was 11.0 ± 0.5 mg/dL. For the same compound, the “Calcium level in serum” value (calcium level in serum [1]; 8 h after administration) was 10.5 ± 0.5 mg/dL, the “Calcium level in serum” value (calcium level in serum [1]; 12 h after administration) was 10.5 ± 0.4 mg/dL and the “Calcium level in serum” value (calcium level in serum [1]; 24 h after administration) was 10.8 ± 0.3 mg/dL. For the same compound, the “inorganic phosphate level in serum” value [2] was “significant reduction of the inorganic phosphate level”, the “Calcium level in serum” value (calcium level in serum [3]; after 10 hours) was 11.5 ± 0.5 mg/dL and the “Calcium level in serum” value (calcium level in serum [3]; after 18 hours) was 10.6 ± 0.4 mg/dL. For the same compound, the “metastatic calcification (roentgenographic examination)” value ([4]; all patients, after completion of the administration) was “metastatic calcification was not recognized”, the “Concentration of inorganic phosphorus after administration, average” value ([4]; average of 8 patients, 2 to 10 µg/day, 6 weeks) was 4.36 ± 0.76 mg/dL and the “Concentration of inorganic phosphorus before administration, average” value ([4]; average of 8 patients, baseline) was 6.63 ± 0.77 mg/dL. For the same compound, the “osteomalacia (bone biopsy)” value ([4]; one patient, after completion of the administration) was “improvement of osteomalacia was confirmed”, the “Concentration of inorganic phosphorus after administration” value ([4]; patient 1 (person fifteen), 8 µg/day, 6 weeks) was 4.9 mg/dL and the “Concentration of inorganic phosphorus before administration” value ([4]; patient 1 (person fifteen), baseline) was 7.2 mg/dL. For the same compound, the “Concentration of inorganic phosphorus after administration” value ([4]; patient 2 (person one), 6 µg/day, 6 weeks) was 4.7 mg/dL, the “Concentration of inorganic phosphorus before administration” value ([4]; patient 2 (person one), baseline) was 6.7 mg/dL and the “Concentration of inorganic phosphorus after administration” value ([4]; patient 3 (person five), 10 µg/day, 6 weeks) was 5.2 mg/dL. For the same compound, the “Concentration of inorganic phosphorus before administration” value ([4]; patient 3 (person five), baseline) was 8.0 mg/dL, the “Concentration of inorganic phosphorus after administration” value ([4]; patient 4 (person nine), 4 µg/day, 6 weeks) was 4.2 mg/dL and the “Concentration of inorganic phosphorus before administration” value ([4]; patient 4 (person nine), baseline) was 5.8 mg/dL. For the same compound, the “Concentration of inorganic phosphorus after administration” value ([4]; patient 5 (person eleven), 8 µg/day, 6 weeks) was 5.3 mg/dL, the “Concentration of inorganic phosphorus before administration” value ([4]; patient 5 (person eleven), baseline) was 7.1 mg/dL and the “Concentration of inorganic phosphorus after administration” value ([4]; patient 6 (person eighteen), 6 µg/day, 6 weeks) was 3.5 mg/dL. For the same compound, the “Concentration of inorganic phosphorus before administration” value ([4]; patient 6 (person eighteen), baseline) was 6.3 mg/dL, the “Concentration of inorganic phosphorus after administration” value ([4]; patient 7 (person eight), 2 µg/day, 6 weeks) was 3.5 mg/dL and the “Concentration of inorganic phosphorus before administration” value ([4]; patient 7 (person eight), baseline) was 5.8 mg/dL. For the same compound, the “Concentration of inorganic phosphorus after administration” value ([4]; patient 8 (person thirteen), 6 µg/day, 6 weeks) was 3.6 mg/dL, the “Concentration of inorganic phosphorus before administration” value ([4]; patient 8 (person thirteen), baseline) was 6.1 mg/dL and the “inorganic phosphate level in serum” value ([4]; patient of chronic renal failure given hemodialysis) was “significant reduction of the inorganic phosphate level in their serum to the normal level”. For the same compound, the Number of thymocytes (thymus) was “(32 ± 5.5) × 10^7” and the “Weight ratio: thymus/body” value (thymus) was 0.00101 ± 0.00011.
